Test results published in patent publication EP1357114A1, “Substituted pyrimidin-2,4(1H,3H)-diones as inhibitors of Matrix Metalloproteinases (MMP)” (IBFB GmbH Privates Institut für biomedizinische Forschung …, priority 2002, dated 2003).

Assays:
[1] = biological target: T1, katalytische Domäne der MMP-8 (Homo sapiens, UniProt P22894); assay: Quantitative fluorescence assay for matrix metalloproteinases (cleavage of Mca-Pro-Leu-Gly-Leu-Dpa-Ala-Arg-NH2); assay type: biochemical
T1 construct: dass wir statt des Gesamtenzyms nur dessen enzymatisch aktive katalytische Domäne in E. coli klonierten; made in house; host or cells: E. coli
From the text: Die Nutzung der katalytischen Domäne der MMP-8 als weiteres Testenzym wurde deshalb gewählt, weil es eine hohe Stabilität besitzt und darüber hinaus als aktives Enzym vorliegt. Es muß deshalb nicht aktiviert werden, was eine der häufigsten Fehlerursachen darstellt, da die zur Aktivierung genutzten Quecksilberverbindungen häufig mit dem Testsystem bzw. dem Enzym interferieren und dadurch die Messergebnisse verfälschen werden. Die Klonierungsstrategie gestalteten wir so, dass wir statt des Gesamtenzyms nur dessen enzymatisch aktive katalytische Domäne in E. coli klonierten. Mit der konstruierten katalytischen Domäne der MMP-8 erzielten wir ein stabiles, enzymatisch aktives und hochreines Enzym, welches für die Routineuntersuchungen der inhibitorischen Aktivität der synthetisierten Inhibitoren sehr gut geeignet war und die Messergebnisse der einzelnen Messserien miteinander vergleichbar machte. Die Klonierung und Expression der katalytischen Domäne der MMP-8 wurde entsprechend den Angaben von SCHNIERER et al. (Schnierer S, Kleine T, Gote T, Hillemann A, Knäuper V, Tschesche H: The recombinant catalytic domain of human neutrophil collagenase lacks type I collagen substrate specificity. Biochem Biophys Res Comm (1993) vol. 191 No. 2, 319-326) durchgeführt.
(§1) Durch enzymatische Spaltung des synthetischen Substrates Mca-Pro-Leu-Gly-Leu-Dpa-Ala-Arg-NH2 durch die jeweilige Kollagenase, wird die fluoreszente Gruppe Mca ((7-Methoxycoumarin-4-yl)acetyl) vom internen Quencher Dpa ((N-3-(2,4-dinitrophenyl)-L-2,3-diaminopropienyl) getrennt. Dabei erfolgt eine starke Zunahme der Fluoreszenz im Messansatz, die am Fluorimeter quantifiziert werden kann (λex 328 nm, λem 393 nm) und innerhalb der ersten Minuten linear verläuft. Eine gewisse Spezifität des Tests für Matrix-Metalloproteinasen ergibt sich einerseits aus der Aminosäuresequenz -Pro-Leu-Gly-Leu- im Substrat und andererseits durch die gewählten Inkubationsbedingungen. Matrix-Metalloproteinasen spalten das Substrat an der Bindung Gly-Leu. Gemessen wird die proteolytische Restaktivität vorinkubierter Ansätze von Enzym und Inhibitor, wobei die Substrat- und Enzymkonzentration konstant gehalten und die Inhibitorkonzentration variiert wurde. Es wurden für jeden getesteten Inhibitor drei Messreihen mit unterschiedlicher Substratkonzentration aufgenommen. Aus der zeitabhängigen Fluoreszenzzunahme wird die Enzymaktivität in Fluoreszenzeinheiten pro min berechnet. Die Bestimmung der Ki-Werte erfolgte graphisch nach der Methode von DIXON (1953) durch Auftragung der reziproken Reaktionsgeschwindigkeit 1/v (y-Achse) gegen Inhibitorkonzentration (x-Achse).
(§2) 1984 µl Messpuffer (100mM Tris-HCI pH 7,5, 100 mM NaCI, 10 mM CaCl2, 0,05% Brij 35 bzw. 50 mM MES-NaOH, pH 6.0, 10 mM CaCl2, 100 mM NaCI, 0.05% Brij 35 im Fall der KaDo MMP-3) 2 µl Inhibitor, gelöst in DMSO, bzw. DMSO allein (nichtinhibierender Ansatz) 4 µl Enzym • 5 min. Vorinkubation des Enzym-Inhibitor-Gemischs bei Raumtemperatur unter Rühren • Start der Reaktion mit 10 µl Substrat gelöst in DMSO • Aufzeichnung der zeitabhängigen Fluoreszenzzunahme über 2 - 10 min.

MMP-9 = biological target: T2, MMP-9 (Homo sapiens, UniProt P14780); assay: as above; assay type: biochemical; settings: bei 10 µM
T2 construct: Das latente Enzym wird durch 30 - 60 min; Inkubation bei 37°C mit 1/100 Vol. Trypsin (10 mg/ml) aktiviert; from tissue; host or cells: human buffy coat (blood leukocytes)
Description: Native MMP-9 wurde reproduzierbar und in guter Ausbeute und Reinheit aus humanem Buffy Coat gewonnen. Hierzu wird Buffy Coat mit 10% (v/v) Triton X-100 auf eine Endkonzentration von 0,4% gebracht, 30 min. auf Eis geschüttelt und dann 1 Vol. 2-fach Bindungspuffer (40 mM Tris-HCI pH 7,5, 10 mM CaCl2, 1 M NaCI, 0,2% (v/v) Triton X-100) hinzugefügt und weitere 30 min. auf Eis geschüttelt. Die Lösung wird 15 min. bei 16 000 Upm an einem SS-34 Rotor bei 4°C abzentrifugiert und über Glaswolle filtriert. Das Filtrat wird mit Gelatine-Agarose, welche mit Bindungspuffer äquilibriert wurde, gebatcht und 1 Std. auf Eis geschüttelt. Die beladene Gelatine-Agarose wird in eine Säule überführt und mit mindestens 10 Vol. Bindungspuffer proteinfrei gespült. Die Elution der gebundenen MMP-9 erfolgt mit 2 Gelvolumen Bindungspuffer plus 5% (v/v) DMSO. Das Eluat kann zum Puffer-Austausch und gleichzeitiger Abtrennung geringer Verunreinigungen an MMP-2 über eine Gelfiltration an Sephadex G-75 aufgetrennt werden. Hierzu wird der Puffer I (20 mM Tris-HCI pH 7,5, 5 mM CaCl2, 100 mM NaCI, 0,1% (v/v) Triton X-100) verwendet. Das so gewonnene Eluat enthällt MMP-9 in den drei bekannten Zustandsformen: Monomer, Homodimer, Heterodimer. Die Reinheit des Enzyms beträgt ca. 90%, wobei die restlichen Fremdproteine Fibronektin und äußerst geringe Mengen an TIMP's sind. Das latente Enzym wird durch 30 - 60 min. Inkubation bei 37°C mit 1/100 Vol. Trypsin (10 mg/ml) aktiviert. Trypsin wird durch Zugabe von 1 mM PMSF oder mit einem spezifischen Inhibitor (TKI) gehemmt.
as §1, §2

T1 sequence (P22894 100-262 limits assumed): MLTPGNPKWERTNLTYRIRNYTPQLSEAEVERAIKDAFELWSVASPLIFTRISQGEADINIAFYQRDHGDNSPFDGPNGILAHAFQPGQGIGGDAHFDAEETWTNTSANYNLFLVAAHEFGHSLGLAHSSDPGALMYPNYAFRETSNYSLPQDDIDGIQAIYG
T2 sequence (P14780 107-707 limits assumed): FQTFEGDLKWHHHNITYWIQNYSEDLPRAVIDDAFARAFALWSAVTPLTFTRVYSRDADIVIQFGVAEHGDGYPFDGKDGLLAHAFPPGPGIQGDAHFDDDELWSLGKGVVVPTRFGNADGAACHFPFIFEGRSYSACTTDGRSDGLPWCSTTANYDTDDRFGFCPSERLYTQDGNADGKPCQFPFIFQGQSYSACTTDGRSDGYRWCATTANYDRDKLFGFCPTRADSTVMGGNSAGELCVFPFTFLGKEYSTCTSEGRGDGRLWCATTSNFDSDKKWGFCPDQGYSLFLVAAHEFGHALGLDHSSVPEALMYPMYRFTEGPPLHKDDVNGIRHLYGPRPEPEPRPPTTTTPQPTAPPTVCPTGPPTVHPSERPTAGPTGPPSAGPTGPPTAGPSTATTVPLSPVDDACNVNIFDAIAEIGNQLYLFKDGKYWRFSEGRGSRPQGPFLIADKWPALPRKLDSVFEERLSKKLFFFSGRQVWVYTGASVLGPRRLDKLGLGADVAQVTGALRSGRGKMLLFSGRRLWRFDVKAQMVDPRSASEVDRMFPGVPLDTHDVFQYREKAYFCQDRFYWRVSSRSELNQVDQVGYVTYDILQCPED

Row | MMP-8 Hemmung ([1]; bei 10 µM) [% Hemmung bei 10 µM] | Structure (SMILES) | Ki ([1]; Dixon plot) [µM] | MMP-9 Hemmung (MMP-9) [% Hemmung bei 10 µM]
1 |  | CC(S)(CS)Cn1c(=O)[nH]c2ccccc2c1=O (racemic) [Beispiel 2, (R,S)-3-(2,3-Dimercapto-2-methylpropyl)chinazolin-2,4-(1H,3H)dion] | 60 | 10
2 | 43 | Cc1cccc2c(=O)n(CC(S)CS)c(=O)[nH]c12 (racemic) [Beispiel 6, (R,S)-3-(2,3-Dimercaptopropyl)-8-methyl-chinazolin-2,4-(1H,3H)dion] |  | 55
